Data from patent US20170050966A1, “INHIBITING THE TRANSIENT RECEPTOR POTENTIAL A1 ION CHANNEL” (HYDRA BIOSCIENCES, INC., priority 2014, published 2017).
Values after ≈ are worked out from the molar mass of the structure shown. Like-named read-outs stand apart in the source and are kept apart here.

Legend:
[1] = Metabolic stability in liver microsomes; format: in vitro ADME, human; conditions: 1 μM test compound; for half-life at 1 μM: human, liver microsomes, 37° C.
Method: (§1) Metabolic stability of the compounds of Formula (I) was determined by standard liver microsome assays. Briefly, metabolic stability was tested by adding the compound to be tested dissolved in DMSO to human, dog, or rat liver microsomes. Assays were run with a starting concentration of 1 μM test compound. The reaction was initiated by addition of nicotinamide adenine dinucleotide phosphate[…] (NADPH) regeneration components at 37° C., at which time an aliquot was immediately quenched in an ice-cold acetonitrile/methanol/water solution. Reaction mixture was incubated at 37° C. on a shaker, and additional aliquots were taken at 7, 15, 30 and 60 minutes. Following quench and centrifugation, samples were analyzed on HPLC/MS/MS.

[2] = Solubility in Normal Ringer Solution; format: physicochemical; conditions: aqueous buffer, kinetic from dmso stock, pH 7.4, room temperature
Method: Compounds of the invention were also tested for solubility in Normal Ringer Solution. […] Following vortex and incubation for 40 minutes at room temperature, solutions were filtered, quenched with acetonitrile, and analyzed by liquid chromatography. Solubility limits were determined by comparison to a standard curve. […] Solubility is reported as “greater than” if the observed increase between the last 2 dilutions tested is greater than 2-fold.

human TRPA1 (hTRPA1) = biological target: T1, human TRPA1 (hTRPA1) (Homo sapiens, UniProt O75762); experiment: Inhibition of human TRPA1, whole-cell patch clamp; format: cell-based; conditions: antagonist effect, whole cell patch configuration; read-out: hTRPA1
T1 construct: expressed in transfected cells
T1 sequence (O75762 whole entry): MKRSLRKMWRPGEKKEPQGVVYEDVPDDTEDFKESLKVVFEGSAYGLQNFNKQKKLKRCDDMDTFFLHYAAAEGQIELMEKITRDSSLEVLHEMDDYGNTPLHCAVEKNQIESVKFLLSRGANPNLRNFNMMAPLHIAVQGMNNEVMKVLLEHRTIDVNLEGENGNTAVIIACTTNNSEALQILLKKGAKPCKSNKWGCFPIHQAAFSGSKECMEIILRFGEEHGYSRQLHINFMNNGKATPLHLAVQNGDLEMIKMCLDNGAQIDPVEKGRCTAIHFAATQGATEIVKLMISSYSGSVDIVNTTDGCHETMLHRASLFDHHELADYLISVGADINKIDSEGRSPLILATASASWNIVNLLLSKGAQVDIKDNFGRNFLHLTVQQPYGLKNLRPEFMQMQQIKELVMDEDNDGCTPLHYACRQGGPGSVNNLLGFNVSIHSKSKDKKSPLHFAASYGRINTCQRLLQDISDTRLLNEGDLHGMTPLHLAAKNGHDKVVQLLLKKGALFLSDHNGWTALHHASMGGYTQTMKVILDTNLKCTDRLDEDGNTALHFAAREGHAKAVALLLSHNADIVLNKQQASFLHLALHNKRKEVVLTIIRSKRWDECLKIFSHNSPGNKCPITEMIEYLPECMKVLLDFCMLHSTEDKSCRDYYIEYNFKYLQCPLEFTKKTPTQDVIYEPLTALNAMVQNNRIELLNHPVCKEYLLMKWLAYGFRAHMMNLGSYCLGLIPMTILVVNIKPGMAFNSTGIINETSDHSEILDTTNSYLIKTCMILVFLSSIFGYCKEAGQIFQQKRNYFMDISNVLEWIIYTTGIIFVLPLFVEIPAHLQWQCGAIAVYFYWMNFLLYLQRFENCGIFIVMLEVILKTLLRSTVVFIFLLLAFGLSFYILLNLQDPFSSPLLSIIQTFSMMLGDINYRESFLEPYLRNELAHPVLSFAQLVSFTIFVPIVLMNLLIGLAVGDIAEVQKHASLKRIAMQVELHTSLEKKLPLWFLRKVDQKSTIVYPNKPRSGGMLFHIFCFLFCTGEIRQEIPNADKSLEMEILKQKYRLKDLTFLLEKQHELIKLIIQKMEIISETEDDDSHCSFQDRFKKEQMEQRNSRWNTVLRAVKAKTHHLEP
Method: Data for TRPA1 inhibition was obtained by this method for the indicated compounds of Formula (I), with the relevant data included in Table 14 below. All currents were recorded in whole-cell configuration using EPC-9 and EPC-10 amplifiers and Patchmaster software (HEKA). […] The standard pipette solution consisted of 140 mM CsAsp, 10 mM EGTA, 10 mM HEPES, […], 1.91 mM CaCl2, and up to 0.3 mM Na2GTP, with pH adjusted to 7.2 with CsOH. In addition, a solution containing 145 mM CsCl, 10 mM HEPES, 10 mM EGTA, and up to 0.3 mM Na2GTP and 1 mM MgCl2 (pH 7.2 adjusted with CsOH) can be used. The standard bath solution contained 150 mM NaCl, 10 mM HEPES, 10 mM glucose, 4.5 mM KCl, 1 mM EGTA, 3 mM MgCl2, with pH adjusted to 7.4 with NaOH. In some instances, 2 mM CaCl2 was added in place of EGTA and the concentration of MgCl2 was reduced to 1 mM.
Data were collected either by continuous recordings at −60 mV or by applying voltage ramps from a holding potential of 0 mV every 4 s. Continuous recordings were collected at 400 Hz and digitally filtered off-line at 10 Hz for presentation. Voltage ramps were applied from −100 mV to 100 mV over the course of 400 ms, and data were collected at 10 kHz and filtered at […]. Inward and outward currents were analyzed from the ramps at −80 and 80 mV, respectively. Liquid junction potential correction was not used.
Solutions were switched using a gravity-fed continuous focal perfusion system. To achieve rapid temperature changes, two temperature control, and perfusion systems were employed simultaneously. For temperatures greater than or equal to 22° C., a Warner Instruments bipolar temperature controller (TC-344B) and inline heater (SHM-8) were used. […] Temperatures were confirmed using a thermistor (Warner Instruments, TA-29), with temperatures at the recorded cell estimated to be within +/−2° C. of those reported.
The antagonist effects of compounds of Formula (I) against human TRPA1 (“hTRPA1”) in a whole cell patch configuration were evaluated using the in vitro assay protocol described above.

[3] = Metabolic stability in liver microsomes; format: in vitro ADME
Method: as §1

[4] = Oral bioavailability of solutions in non-fasted rats; conditions: rat, in vivo, oral solution, read-out: Rat % F
Method: Early bioavailability studies in rat were conducted with solutions of the compounds of the invention. Compounds were delivered via oral administration as a solution in an appropriate excipient. Example formulations include, but are not limited to: 4% DMSO, 10% Solutol HS-15, and 86% water or 4% DMSO, 5% Tween, 25% Cremophor EL. Target concentrations were typically 1 mg/mL, and administered via oral gavage to non-fasted rats. The absolute bioavailability is the dose-corrected area under the curve (AUC) non-intravenous divided by the dose corrected AUC intravenous. The formula for calculating F for a drug administered by the oral route (PO) is given below:
% F=AUC PO×Dose IV/AUC IV×Dose PO

[5] = Kinetic solubility in buffered solutions; format: physicochemical; conditions: aqueous buffer, kinetic from dmso stock, 24 hours ambient
Method: The solubilities of the compounds of Formula (I) were tested using the procedure outlined in Kerns, E. H., J Pharm Sci (2001) 90:1838-1858, incorporated herein by reference and described below. Data for solubility was obtained by this method for compounds of Formula (I) and included in Table 3. The chromatographic data was performed by HPLC using an Xbridge Shield RP18 column with the following column dimensions: 4.6×30 mm, 3.5 μm. The mobile phase consisted of deionized water (MPA) with trifluoroacetic acid added in at 0.1% (v/v) (MPC) and HPLC-grade acetonitrile (MPB). The mobile phase flow rate was 2.5 mL/min with the column and sampling operating at ambient temperature. UV detection was set to 280 nm.
Samples for analysis of the compounds of Formula (I) were prepared at a % v/v=1/19 (i.e., 10 μL of the stock solution into 190 μL of buffer) by spiking stock solutions of the compounds of Formula (I) into buffered solutions. Three buffered solution systems were prepared: pH 4.0 prepared from 50 mM sodium acetate in a 5% dextrose in water solution, pH 7.4 prepared from 75 mM sodium phosphate in a 1:1 ratio of sterilized water for injection to a 5% dextrose in water solution, and pH 9.0 prepared from 50 mM sodium bicarbonate in a 1:2 ratio of sterilized water for injection to a 5% dextrose in water solution. The samples were incubated on a microplate shaker at 300 rpm for 24 hours at ambient temperature. Following incubation, the samples were centrifuged for five minutes at 13 k rpm at ambient temperature. The resulting supernantant was extracted for HPLC analysis.

[6] = rat liver microsomes, both sexes, read-out: Half-Life Both sexes
[7] = sodium acetate buffer, pH 4.0, 50 mM sodium acetate, read-out: pH 4.0 solubility
[8] = sodium bicarbonate buffer, pH 9.0, 50 mM sodium bicarbonate, read-out: pH 9.0 solubility
[9] = sodium phosphate buffer, pH 7.4, 75 mM sodium phosphate, read-out: pH 7.4 solubility
[10] = dog liver microsomes, both sexes, read-out: Half-Life both sexes
[11] = rat liver microsomes, male, read-out: Male Half-Life

Row | SMILES | half-life at 1 μM [1] [min] | solubility at 40 min [2] [µM] | IC50 (human TRPA1 (hTRPA1)) [nM] | half-life at 1 μM [3, 6] [min] | bioavailability [4] [%] | solubility kinetic at 24 h [5, 7] [µg/mL] | solubility kinetic at 24 h [5, 8] [µg/mL] | solubility kinetic at 24 h [5, 9] [µg/mL] | Human Liver Microsomes Hepatic Clearance [1] [mL/min/kg] | Hepatic Clearance ([3]; dog liver microsomes) [mL/min/kg] | half-life at 1 μM [3, 10] [min] | Male Hepatic Clearance ([3]; rat liver microsomes, male) [mL/min/kg] | half-life at 1 μM [3, 11] [min] | Female Hepatic Clearance ([3]; dog liver microsomes, female) [mL/min/kg] | half-life at 1 μM ([3]; dog liver microsomes, female, read-out: Female Half-Life) [min] | Hepatic Clearance ([3]; rat liver microsomes) [mL/min/kg]
1 | C[C@@H](C(=O)Nc1ccnc(-c2cnc(N3CCC[C@H]3C(F)(F)F)nc2)n1)n1cnc2c1c(=O)n(C)c(=O)n2C(F)F [Compound 6, (S)-2-(3-(difluoromethyl)-1-methyl-2,6-dioxo-2,3-dihydro-1H-purin-7(6H)-yl)-N-(2′-((S)-2-(trifluoromethyl)pyrrolidin-1-yl)-[2,5′-bipyrimidin]-4-yl)propanamide] | 27.4 | ~23 (≈ 13.4 µg/mL) | 29.7 | 118 |  |  |  |  |  |  |  |  |  |  |  | 
2 | C[C@H]1CCCN1c1ncc(-c2nccc(NC(=O)Cn3cnc4c3c(=O)n(C)c(=O)n4C)n2)cn1 [Compound 19, (S)-2-(1,3-dimethyl-2,6-dioxo-2,3-dihydro-1H-purin-7(6H)-yl)-N-(2′-(2-methylpyrrolidin-1-yl)-2,5′-bipyrimidin-4-yl)acetamide] | 50 | > 18.2 | 96.1 | 63.8 | 77 | 6 (≈ 12.6 µM) | 3.5 (≈ 7.35 µM) | 10 (≈ 21 µM) | 9 | 11 | 44 | 25 | 36 |  |  | 
3 | C[C@@H](C(=O)Nc1ccnc(-c2cnc(N3CC(C(F)(F)F)C3)nc2)n1)n1cnc2c1c(=O)n(C)c(=O)n2C [Compound 13, (S)-2-(1,3-dimethyl-2,6-dioxo-2,3-dihydro-1H-purin-7(6H)-yl)-N-(2′-(3-(trifluoromethyl)azetidin-1-yl)-2,5′-bipyrimidin-4-yl)propanamide] | > 60 | > 77.6 | 62.9 | 60 |  |  |  |  |  |  |  |  |  |  |  | 
4 | C[C@@H](C(=O)Nc1ccnc(-c2cnc(N3CC4CC4C3)nc2)n1)n1cnc2c1c(=O)n(C)c(=O)n2C (stereo partly drawn) [Compound 15, (2S)—N-(2′-(3-azabicyclo[3.1.0]hexan-3-yl)-2,5′-bipyrimidin-4-yl)-2-(1,3-dimethyl-2,6-dioxo-2,3-dihydro-1H-purin-7(6H)-yl)propanamide] | 88.8 | 16.3 (≈ 7.96 µg/mL) | 26.7 | 72.7 | 35 |  |  |  |  |  |  |  |  |  |  | 
5 | C[C@@H](C(=O)Nc1ccnc(-c2cnc(N3CCC[C@H]3C(F)(F)F)nc2)n1)n1cnc2[nH]c(=O)n(C)c(=O)c21 [Compound 5, (S)-2-(1-methyl-2,6-dioxo-2,3-dihydro-1H-purin-7(6H)-yl)-N-(2′-((S)-2-(trifluoromethyl)pyrrolidin-1-yl)-[2,5′-bipyrimidin]-4-yl)propanamide] | 37.8 | 4.37 (≈ 2.32 µg/mL) | 663 | 113 |  |  |  |  |  |  | > 120 |  |  |  |  | 
6 | C[C@@H](C(=O)Nc1ccnc(-c2cnc(N3CC4C(C3)C4(F)F)nc2)n1)n1cnc2c1c(=O)n(C)c(=O)n2C (stereo partly shown) [Compound 26] |  | > 15.1 |  |  |  |  |  |  |  |  |  |  |  |  |  | 
7 | C[C@H]1CCCN1c1ncc(-c2nccc(NC(=O)[C@H](C)n3cnc4c3c(=O)n(C)c(=O)n4C)n2)cn1 [Compound 21, (S)-2-(1,3-dimethyl-2,6-dioxo-2,3-dihydro-1H-purin-7(6H)-yl)-N-(2′-((S)-2-methylpyrrolidin-1-yl)-[2,5′-bipyrimidin]-4-yl)propanamide] | 30 |  | 51 |  |  | 34 (≈ 69.3 µM) | 10.5 (≈ 21.4 µM) | 20 (≈ 40.8 µM) | 10.5 |  |  | 34 | 16 | 8 | 66 | 11
8 | C[C@@H](C(=O)Nc1ccnc(-c2cnc(N3CCC(C(F)(F)F)C3)nc2)n1)n1cnc2c1c(=O)n(C)c(=O)n2C (stereo partly drawn) [Compound 16, (2S)-2-(1,3-dimethyl-2,6-dioxo-2,3-dihydro-1H-purin-7(6H)-yl)-N-(2′-(3-(trifluoromethyl)pyrrolidin-1-yl)-2,5′-bipyrimidin-4-yl)propanamide] | 52.4 | > 47 | 24.9 |  |  |  |  |  |  |  |  |  |  |  |  | 
